From patent US9834525B2, “Inhibitors of paxillin function and related compositions and methods” (UNIVERSITY OF TENNESSEE RESEARCH FOUNDATION, priority 2015, dated 2017)
“Also recorded” adds a separate entry of the source.

Legend:
[1] = test system: metastatic-UM cell; assay: CFSE cellular proliferation, metastatic UM; assay type: cell-based, human; conditions: metastatic-UM cells; 96 hrs culture, 1 μM for the last 24 hrs
Description: Harvested cells were resuspended at a concentration of 1.0×10^6 cells/mL in warm PBS/1% FBS. Cells were labeled with […] (Invitrogen) for 5 minutes at 37° C. then quenched on cold growth media (final volume 20 mL) for 10 minutes, twice. Cultured unlabeled cells were used as controls.
To test the hypothesis that inhibition of paxillin will reduce cellular proliferation UM cell lines were labeled with carboxyfluorescein succunimidyl ester (CFSE), a cell tracking dye, and cultured for 96 hrs. A group of cells received treatment with compound (II-4) for the last 24 hours. Maximum CFSE fluorescence was controlled using labeled cells prior culture −0 hr. Negative control was established using unlabeled cells cultured in parallel. Histograms in FIG. 15D show 96 hrs cultured cells divided with a 1-log shift or reduction in CFSE intensity. […] Cell proliferation was not affected in the 92.1 cell line. […]
FIG. 15: The paxillin inhibitor Compound (II-4) selectively affects cellular proliferation of primary UM cells that become metastatic. […] Unlabeled cells were used to control fluorescence. […] B. Quantitation of experiment +/−SD including primary UM that becomes metastatic (Mel 270), metastatic (OMM 2.1) and primary (92.1) UM cells. *P=0.0007 and **P=0.0005. […] Quantitation of VLA-4 protein levels +/−SD from n=3. […]

[2] = test system: retinal endothelial cells (REC); assay: transwell (Boyden chamber) cell migration assay, VEGF-stimulated RECs; assay type: cell-based, human; conditions: 24 hours of VEGF stimulation; +100, +500 nM
Description: Two methods of evaluating VEGF-induced REC migration were used to assess the impact of compound (II-4) on paxillin-mediated migration: the scratch assay and the transwell (Boyden chamber) cell migration assay. To test if paxillin inhibition would reduce VEGF-induced REC migration, RECs were wounded and treated with VEGF ([…]) +/− compound (II-4) ([…]). Wound closure was monitored by phase microscopy over 24 hours and area of wound closure was calculated using the sophisticated image analysis tools in Adobe Photoshop. Cells were then fixed and nuclei were stained using DAPI to show extent of cell migration.
Compound (II-4) was further investigated around these concentrations using the transwell migration assay (FIG. 17B).
FIG. 17: REC migration. A) Increasing concentrations of compound (II-4) inhibit VEGF-induced migration in a scratch wound assay; [Serum Free-control, VEGF (100 ng/mL), VEGF+100 nM, 500 nM, 10 μM, 100 μM] (IC50≈180 ηM; n=6/group). Cells were stained with DAPI for representative images. B) RECs seeded onto transwell membranes were stimulated with VEGF+ vehicle or compound (II-4) for 24 hrs. Cells were removed from the topside of membrane and migrated cells were stained with DAPI [Serum-Free (SF), VEGF, +100, +500 nM, respectively]. Cell number was measured using fluorescence microscopy. All data are mean±SD (*, # P<0.001)

[3] = molecular target: T1, CYP3A4 (Homo sapiens, UniProt P08684); assay: CYP-450 interaction study in pooled human liver microsomes, CYP3A4; assay type: in vitro ADME; conditions: 1 μM
T1 construct: from tissue; host or cells: pooled human liver microsomes
T1 sequence (P08684 whole entry): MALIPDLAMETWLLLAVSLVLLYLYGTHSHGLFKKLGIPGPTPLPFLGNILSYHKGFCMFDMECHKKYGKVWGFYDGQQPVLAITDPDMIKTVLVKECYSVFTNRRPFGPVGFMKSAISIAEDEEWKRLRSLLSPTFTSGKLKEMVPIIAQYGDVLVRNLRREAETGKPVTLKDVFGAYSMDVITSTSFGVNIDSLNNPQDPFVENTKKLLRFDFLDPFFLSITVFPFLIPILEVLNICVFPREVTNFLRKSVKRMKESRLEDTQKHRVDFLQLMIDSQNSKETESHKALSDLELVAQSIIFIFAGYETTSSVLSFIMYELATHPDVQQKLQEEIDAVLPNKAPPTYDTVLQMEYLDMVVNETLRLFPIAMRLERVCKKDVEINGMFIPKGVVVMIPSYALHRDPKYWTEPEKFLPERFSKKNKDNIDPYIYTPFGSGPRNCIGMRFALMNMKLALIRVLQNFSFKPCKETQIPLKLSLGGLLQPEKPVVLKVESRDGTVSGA
Description: CYP-450 interaction studies were conducted in pooled human liver microsomes (FIG. 8). CYP-450 inhibition (%) by compound (II-4) (1 μM) was compared to control inhibitors (1 μM) for the most common CYP-450 isoforms, CYP3A4, CYP2C9, CYP2D6, CYP2C19, and CYP1A2.
CYP-450 interaction studies were conducted in pooled human liver microsomes (FIG. 24). CYP-450 inhibition (%) by compound (II-4) (1 μM) was compared to control inhibitors (1 μM) for the most common CYP-450 isoforms, 3A4, 2C9, 2D6, 2C19, and 1A2.

`COc1cc(C2OC(=O)Nc3c2ccc2ccccc32)cc(OC)c1OC` (stereo not drawn) [compound II-4] was tested, and the “cell proliferation (CFSE)” value [1] was “reduction was not observed”, the “migration of RECs in transwell migration assay” value [2] was “significant decrease” and the “CYP-450 inhibition, CYP3A4” value [3] was “lack of significant inhibition; also recorded: lacks significant inhibition”.
